Values quoted from earlier work in patent US20220175755A1, “METHODS OF TREATING TOBACCO SMOKING ADDICTION, AND TREATING NICOTINE AND TOBACCO SMOKING ADDICTION” (Pharma Unlimited B.V., priority 2017, published 2022).
Like-named read-outs stand apart in the source and are kept apart here.

Assays:
[1] = test system: number of cigarettes smoked by tobacco smokers; details: aerosol with an inhaler, dose of 400 μg CBD dissolved in absolute ethanol≈5%
[2] = transdermal patches
[3] = nicotine replacement therapy using chewing gum

Row | Compound | reduction of the number of cigarettes smoked [1] [%] | blood concentration after stopping chewing the gum (chewing gum, 90 minutes after stopping chewing) | peak nicotine absorption rate (chewing tobacco) | time of peak nicotine absorption rate (chewing tobacco) [min] | peak blood concentration [3] | peak nicotine absorption rate [3] | time for nicotine absorption rate to decline to zero [3] | time of peak nicotine absorption rate [3] [min] | time to peak blood concentration [3] | peak blood concentration (smoking cigarettes) | peak nicotine absorption rate (smoking cigarettes) | time of peak nicotine absorption rate (smoking cigarettes) | time to peak blood concentration (smoking cigarettes) | time for blood concentration to fall to 70% of the peak value (smoking cigarettes, after finishing smoking) | time after applying a patch at which blood nicotine levels start to rise [2]
1 | C=C(C)[C@@H]1CCC(C)=C[C@H]1c1c(O)cc(CCCCC)cc1O [CBD] | 40 |  |  |  |  |  |  |  |  |  |  |  |  |  | 
2 | CN1CCC[C@H]1c1cccnc1 [nicotine, 3-[(2S)-1-methylpyrrolidine-2-yl]pyridine] |  | about 7 ng/ml | around 145 μg/min | 5 | less than 9 ng/ml | around 65 μg/min | about 90 minutes | 10 | about 30 minutes | around 15 ng/ml | around 200 μg/min | about 5 minutes | about 10 minutes | about 20 minutes | about 30 minutes
